# Measured values taken from patent US7074789B2, “Kinase inhibitors” (Amgen Inc., priority 1999, dated 2006).
# Tests used:
# Type in all cases: biochemical
# PDGFRB = biological target: T1, PDGFRB (Homo sapiens, UniProt P09619); test: Kinase inhibition assay (33P transfer), PDGFRB; conditions: read-out: PDGFRB-1
# T1 construct: Kinases are expressed as either kinase domains or full length constructs; made in house
# IGFR-1 = biological target: T2, IGFR-1 (Homo sapiens, UniProt P08069); test: Kinase inhibition assay, IGFR-1 (Table 2); conditions: Table 2, kinase inhibition class
# T2 construct: Kinases are expressed as either kinase domains or full length constructs; made in house
# T2 sequence (P08069 31-1367): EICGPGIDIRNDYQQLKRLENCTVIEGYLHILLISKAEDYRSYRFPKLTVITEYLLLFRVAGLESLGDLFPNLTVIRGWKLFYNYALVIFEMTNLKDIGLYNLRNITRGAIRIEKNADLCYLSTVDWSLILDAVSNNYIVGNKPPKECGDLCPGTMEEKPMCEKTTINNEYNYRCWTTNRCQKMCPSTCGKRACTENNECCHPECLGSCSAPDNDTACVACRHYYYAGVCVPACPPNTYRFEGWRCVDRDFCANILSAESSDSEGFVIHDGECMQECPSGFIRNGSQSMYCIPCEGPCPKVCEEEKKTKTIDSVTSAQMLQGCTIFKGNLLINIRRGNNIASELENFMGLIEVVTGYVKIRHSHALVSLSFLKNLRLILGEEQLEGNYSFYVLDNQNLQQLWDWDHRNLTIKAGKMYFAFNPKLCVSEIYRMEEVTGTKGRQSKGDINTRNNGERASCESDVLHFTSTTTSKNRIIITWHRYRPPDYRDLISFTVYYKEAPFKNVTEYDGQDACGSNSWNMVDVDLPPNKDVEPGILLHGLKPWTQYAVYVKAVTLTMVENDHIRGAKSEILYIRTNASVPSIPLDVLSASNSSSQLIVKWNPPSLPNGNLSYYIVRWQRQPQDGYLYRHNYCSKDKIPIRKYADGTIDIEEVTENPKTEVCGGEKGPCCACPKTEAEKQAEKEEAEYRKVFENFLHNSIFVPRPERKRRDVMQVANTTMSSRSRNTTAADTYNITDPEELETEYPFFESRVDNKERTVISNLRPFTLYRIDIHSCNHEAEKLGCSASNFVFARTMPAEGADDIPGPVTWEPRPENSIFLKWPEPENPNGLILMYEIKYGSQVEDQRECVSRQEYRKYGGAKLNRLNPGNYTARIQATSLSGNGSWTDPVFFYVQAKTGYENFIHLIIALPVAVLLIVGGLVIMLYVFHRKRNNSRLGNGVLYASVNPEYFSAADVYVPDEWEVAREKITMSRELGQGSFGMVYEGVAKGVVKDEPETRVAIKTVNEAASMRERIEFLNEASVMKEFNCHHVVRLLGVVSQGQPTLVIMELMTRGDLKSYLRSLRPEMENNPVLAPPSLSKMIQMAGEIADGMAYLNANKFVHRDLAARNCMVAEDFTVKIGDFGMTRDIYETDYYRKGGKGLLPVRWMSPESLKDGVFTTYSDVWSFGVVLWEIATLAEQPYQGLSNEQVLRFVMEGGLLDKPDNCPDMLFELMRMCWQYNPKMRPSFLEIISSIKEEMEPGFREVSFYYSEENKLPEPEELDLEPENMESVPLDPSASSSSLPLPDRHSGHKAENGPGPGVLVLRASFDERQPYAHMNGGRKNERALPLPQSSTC
# Itk = biological target: T3, Itk (Homo sapiens, UniProt Q08881); test: Kinase inhibition assay (33P transfer), Itk; conditions: read-out: Itk-1
# T3 construct: Kinases are expressed as either kinase domains or full length constructs; made in house
# T3 sequence (Q08881 1-620): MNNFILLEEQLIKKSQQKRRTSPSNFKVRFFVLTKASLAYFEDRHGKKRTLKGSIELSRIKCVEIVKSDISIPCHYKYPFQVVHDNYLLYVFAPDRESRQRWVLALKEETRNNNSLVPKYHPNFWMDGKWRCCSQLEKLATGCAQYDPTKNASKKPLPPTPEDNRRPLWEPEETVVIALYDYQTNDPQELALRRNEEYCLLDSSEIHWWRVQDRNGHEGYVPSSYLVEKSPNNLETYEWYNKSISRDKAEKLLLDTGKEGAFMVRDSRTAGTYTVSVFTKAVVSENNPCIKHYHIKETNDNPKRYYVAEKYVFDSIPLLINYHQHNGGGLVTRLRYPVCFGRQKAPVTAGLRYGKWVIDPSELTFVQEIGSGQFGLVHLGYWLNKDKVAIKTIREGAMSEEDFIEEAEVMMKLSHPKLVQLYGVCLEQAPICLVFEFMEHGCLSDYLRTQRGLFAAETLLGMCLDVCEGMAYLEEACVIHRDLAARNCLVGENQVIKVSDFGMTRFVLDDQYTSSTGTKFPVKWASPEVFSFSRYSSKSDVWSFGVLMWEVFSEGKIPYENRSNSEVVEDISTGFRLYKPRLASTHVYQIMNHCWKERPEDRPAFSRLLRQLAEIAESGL
# Method in brief: (§1)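 Read-out: scintillation counts of 33P moved from ATP onto synthetic peptide polymer coated on the well surface, after washing with 0.5% phosphoric acid. Enzymes were tagged (GST or polyHistidine) and came from bacterial or insect-cell expression. IC50 marks 50% loss of incorporated label.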
# AKT = biological target: T4, AKT (Homo sapiens, UniProt Q9Y243); test: Kinase inhibition assay (33P transfer), AKT; conditions: Table 2, kinase inhibition class; read-out: AKT3-1
# T4 construct: Kinases are expressed as either kinase domains or full length constructs; made in house
# T4 sequence (Q9Y243 whole entry, the tested form may be a part): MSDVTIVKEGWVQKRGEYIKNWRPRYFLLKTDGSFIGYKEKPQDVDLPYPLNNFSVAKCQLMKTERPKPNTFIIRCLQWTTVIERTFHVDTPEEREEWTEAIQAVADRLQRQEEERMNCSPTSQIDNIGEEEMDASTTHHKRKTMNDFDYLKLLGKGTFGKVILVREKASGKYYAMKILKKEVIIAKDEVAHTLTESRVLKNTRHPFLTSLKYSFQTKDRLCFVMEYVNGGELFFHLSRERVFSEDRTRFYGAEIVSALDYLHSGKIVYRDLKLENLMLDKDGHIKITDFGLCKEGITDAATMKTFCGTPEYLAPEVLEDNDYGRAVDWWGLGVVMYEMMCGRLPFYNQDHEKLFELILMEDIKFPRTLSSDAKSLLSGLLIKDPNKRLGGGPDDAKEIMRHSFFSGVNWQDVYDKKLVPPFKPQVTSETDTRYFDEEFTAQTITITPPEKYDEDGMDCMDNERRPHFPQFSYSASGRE
# Method in brief: (§2)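 Activity was read as 33P incorporation, counted by liquid scintillation after a 0.5% phosphoric acid wash, into poly(Glu,Tyr) 4:1 or poly(Arg,Ser) 3:1 substrates coated on plates. Enzymes were tagged (GST or polyHis) kinase domains or full-length proteins from bacterial or insect-cell expression, sometimes with regulatory polypeptides.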
# Kdr = biological target: T5, Kdr (Homo sapiens, UniProt P35968); test: Kinase inhibition assay (33P transfer), Kdr; conditions: read-out: KDR-1
# T5 construct: Kinases are expressed as either kinase domains or full length constructs; made in house
# Method in brief: as §2
# c-Met = biological target: T6, c-Met (Homo sapiens, UniProt P08581); test: Kinase inhibition assay (33P transfer), c-Met; conditions: Table 2, kinase inhibition class; read-out: Met-1
# T6 construct: Kinases are expressed as either kinase domains or full length constructs; made in house
# Method in brief: as §1
# Zap-70 = biological target: T7, Zap-70 (Homo sapiens, UniProt P43403); test: Kinase inhibition assay (33P transfer), Zap-70; conditions: read-out: Zap-1
# T7 construct: Kinases are expressed as either kinase domains or full length constructs; made in house
# T7 sequence (P43403 1-619): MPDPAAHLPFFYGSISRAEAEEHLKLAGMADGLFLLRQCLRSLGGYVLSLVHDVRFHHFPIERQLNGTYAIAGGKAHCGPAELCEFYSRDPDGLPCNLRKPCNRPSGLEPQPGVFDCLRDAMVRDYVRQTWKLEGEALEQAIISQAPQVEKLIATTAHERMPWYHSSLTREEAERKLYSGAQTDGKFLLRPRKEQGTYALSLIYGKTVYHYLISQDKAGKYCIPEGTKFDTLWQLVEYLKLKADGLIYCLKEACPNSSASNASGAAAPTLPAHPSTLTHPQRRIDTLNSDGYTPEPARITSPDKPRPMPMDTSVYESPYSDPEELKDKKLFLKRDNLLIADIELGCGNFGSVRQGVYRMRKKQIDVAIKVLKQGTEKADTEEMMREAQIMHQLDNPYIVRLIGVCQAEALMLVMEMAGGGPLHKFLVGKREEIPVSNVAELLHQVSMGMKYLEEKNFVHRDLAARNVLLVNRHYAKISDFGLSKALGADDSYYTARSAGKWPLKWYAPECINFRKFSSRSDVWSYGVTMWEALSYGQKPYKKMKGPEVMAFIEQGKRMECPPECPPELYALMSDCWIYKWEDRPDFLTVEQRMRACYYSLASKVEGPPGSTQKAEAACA
# Method in brief: as §2
# Lck = biological target: T8, Lck (Homo sapiens, UniProt P06239); test: Kinase inhibition assay (33P transfer), Lck; conditions: read-out: Lck-1
# T8 construct: Kinases are expressed as either kinase domains or full length constructs; made in house
# T8 sequence (P06239 whole entry, species assumed, the tested form may be a part): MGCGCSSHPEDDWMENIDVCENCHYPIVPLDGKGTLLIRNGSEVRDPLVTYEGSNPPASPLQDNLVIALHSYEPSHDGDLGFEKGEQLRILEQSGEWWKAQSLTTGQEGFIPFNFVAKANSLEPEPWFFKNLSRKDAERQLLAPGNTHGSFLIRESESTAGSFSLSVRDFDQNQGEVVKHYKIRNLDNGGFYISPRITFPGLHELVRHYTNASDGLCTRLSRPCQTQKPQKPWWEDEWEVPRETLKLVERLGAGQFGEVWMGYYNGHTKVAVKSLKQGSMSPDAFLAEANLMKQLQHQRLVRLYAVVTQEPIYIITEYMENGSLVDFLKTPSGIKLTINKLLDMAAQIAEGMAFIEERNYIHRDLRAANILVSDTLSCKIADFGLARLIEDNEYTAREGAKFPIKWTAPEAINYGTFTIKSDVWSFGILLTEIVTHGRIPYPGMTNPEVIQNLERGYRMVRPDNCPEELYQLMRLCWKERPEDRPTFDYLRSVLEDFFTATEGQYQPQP
# Method in brief: as §2
# ErbB2 = biological target: T9, ErbB2 (Homo sapiens, UniProt P04626); test: Kinase inhibition assay (33P transfer), ErbB2; conditions: read-out: ErbB2-2
# T9 construct: Kinases are expressed as either kinase domains or full length constructs; made in house
# T9 sequence (P04626 23-1255, species assumed): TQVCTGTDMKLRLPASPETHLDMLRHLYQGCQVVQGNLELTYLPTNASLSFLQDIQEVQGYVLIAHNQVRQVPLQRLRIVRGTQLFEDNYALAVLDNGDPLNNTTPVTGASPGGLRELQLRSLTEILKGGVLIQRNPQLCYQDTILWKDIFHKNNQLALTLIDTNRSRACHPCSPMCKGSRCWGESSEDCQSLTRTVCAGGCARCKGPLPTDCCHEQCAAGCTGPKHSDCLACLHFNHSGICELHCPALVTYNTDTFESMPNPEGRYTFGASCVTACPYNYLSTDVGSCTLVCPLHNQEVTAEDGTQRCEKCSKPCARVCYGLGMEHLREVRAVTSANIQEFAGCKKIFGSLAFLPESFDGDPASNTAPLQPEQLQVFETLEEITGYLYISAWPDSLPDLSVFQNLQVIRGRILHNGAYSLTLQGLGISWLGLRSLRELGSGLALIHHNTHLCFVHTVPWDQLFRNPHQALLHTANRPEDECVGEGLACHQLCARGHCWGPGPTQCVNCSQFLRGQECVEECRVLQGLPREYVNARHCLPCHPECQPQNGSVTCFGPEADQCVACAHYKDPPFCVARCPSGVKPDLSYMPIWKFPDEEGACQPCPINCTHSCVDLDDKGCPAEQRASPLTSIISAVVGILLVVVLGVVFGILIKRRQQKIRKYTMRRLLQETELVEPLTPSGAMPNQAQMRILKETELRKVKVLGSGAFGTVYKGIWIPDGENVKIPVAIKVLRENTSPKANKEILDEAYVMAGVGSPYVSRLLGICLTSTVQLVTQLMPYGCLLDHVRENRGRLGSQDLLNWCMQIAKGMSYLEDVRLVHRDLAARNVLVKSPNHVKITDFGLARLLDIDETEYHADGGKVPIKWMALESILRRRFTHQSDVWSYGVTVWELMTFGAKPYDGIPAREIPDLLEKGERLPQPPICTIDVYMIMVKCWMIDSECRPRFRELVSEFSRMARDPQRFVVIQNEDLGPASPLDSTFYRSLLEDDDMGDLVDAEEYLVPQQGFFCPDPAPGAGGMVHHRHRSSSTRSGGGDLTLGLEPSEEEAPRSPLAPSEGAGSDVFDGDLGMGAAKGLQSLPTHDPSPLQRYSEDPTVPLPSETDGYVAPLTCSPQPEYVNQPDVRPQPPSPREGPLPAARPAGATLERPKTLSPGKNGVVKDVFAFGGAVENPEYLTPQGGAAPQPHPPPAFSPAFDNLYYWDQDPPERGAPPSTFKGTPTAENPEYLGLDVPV
# Method in brief: as §1
# EGFR = biological target: T10, EGFR (Homo sapiens, UniProt P00533); test: Kinase inhibition assay (33P transfer), EGFR; conditions: Table 2, kinase inhibition class; read-out: EGFR-1
# T10 construct: Kinases are expressed as either kinase domains or full length constructs; made in house
# T10 sequence (P00533 25-1210, species assumed): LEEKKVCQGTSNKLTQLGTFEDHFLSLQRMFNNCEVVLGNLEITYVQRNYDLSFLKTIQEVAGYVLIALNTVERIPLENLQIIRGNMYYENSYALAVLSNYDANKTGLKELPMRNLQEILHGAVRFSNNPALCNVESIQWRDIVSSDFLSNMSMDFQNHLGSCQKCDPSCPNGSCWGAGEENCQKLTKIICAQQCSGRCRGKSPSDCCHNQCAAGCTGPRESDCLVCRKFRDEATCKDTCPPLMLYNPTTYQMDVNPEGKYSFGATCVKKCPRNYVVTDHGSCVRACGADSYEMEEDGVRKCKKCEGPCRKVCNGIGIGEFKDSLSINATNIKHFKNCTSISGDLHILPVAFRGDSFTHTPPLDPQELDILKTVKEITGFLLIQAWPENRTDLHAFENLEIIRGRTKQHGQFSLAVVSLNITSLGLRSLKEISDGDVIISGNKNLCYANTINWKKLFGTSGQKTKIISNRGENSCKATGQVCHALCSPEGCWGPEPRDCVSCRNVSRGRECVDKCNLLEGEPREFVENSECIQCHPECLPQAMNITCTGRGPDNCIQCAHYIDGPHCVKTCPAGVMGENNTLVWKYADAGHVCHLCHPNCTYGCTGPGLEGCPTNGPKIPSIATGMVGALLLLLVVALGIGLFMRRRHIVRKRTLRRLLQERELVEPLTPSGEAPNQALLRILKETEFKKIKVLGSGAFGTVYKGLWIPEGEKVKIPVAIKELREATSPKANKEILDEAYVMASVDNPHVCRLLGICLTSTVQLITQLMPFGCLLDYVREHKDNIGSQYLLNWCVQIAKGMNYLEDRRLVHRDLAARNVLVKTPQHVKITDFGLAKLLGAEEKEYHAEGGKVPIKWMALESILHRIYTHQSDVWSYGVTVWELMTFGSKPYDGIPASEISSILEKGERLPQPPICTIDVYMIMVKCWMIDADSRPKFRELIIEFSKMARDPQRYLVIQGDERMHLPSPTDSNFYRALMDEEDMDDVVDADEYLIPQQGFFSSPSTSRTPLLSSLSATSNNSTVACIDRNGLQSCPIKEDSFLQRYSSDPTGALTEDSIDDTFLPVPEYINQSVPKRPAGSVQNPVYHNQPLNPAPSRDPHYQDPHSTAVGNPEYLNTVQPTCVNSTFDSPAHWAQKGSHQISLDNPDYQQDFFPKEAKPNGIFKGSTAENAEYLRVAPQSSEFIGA
# Method in brief: as §1
smiles,measurement,setting,value
CCC(O)CNc1ncnc(Nc2ccc(OC)c(OC)c2)n1 (stereo not shown) [Compound 788],IC50,PDGFRB,11 to 14.1 µM
same,IC50,IGFR-1,> 14.1 µM
same,IC50,Itk,> 14.1 µM
same,IC50,AKT,> 14.1 µM
same,IC50,Kdr,> 14.1 µM
same,IC50,c-Met,> 14.1 µM
same,IC50,Zap-70,> 14.1 µM
same,IC50,Lck,> 14.1 µM
same,IC50,ErbB2,> 14.1 µM
same,IC50,EGFR,> 14.1 µM
COc1ccc(Nc2ncnc(NC[C@@H]3CCCO3)n2)cc1OC [Compound 790],IC50,PDGFRB,10.6 to 13.6 µM
same,IC50,IGFR-1,> 13.6 µM
same,IC50,Itk,> 13.6 µM
same,IC50,AKT,> 13.6 µM
same,IC50,Kdr,> 13.6 µM
same,IC50,c-Met,> 13.6 µM
same,IC50,Zap-70,> 13.6 µM
same,IC50,Lck,> 13.6 µM
same,IC50,ErbB2,1.21 to 7.24 µM
same,IC50,EGFR,> 13.6 µM
c1ccc(CCNc2ncnc(Nc3ccc4c(cnn4Cc4ccccc4)c3)n2)cc1 [Compound 734],IC50,PDGFRB,> 10.7 µM
same,IC50,IGFR-1,5.69 to 8.3 µM
same,IC50,Itk,> 10.7 µM
same,IC50,AKT,> 10.7 µM
same,IC50,Kdr,0.949 to 5.69 µM
same,IC50,c-Met,8.3 to 10.7 µM
same,IC50,Zap-70,5.69 to 8.3 µM
same,IC50,Lck,> 10.7 µM
same,IC50,ErbB2,5.69 to 8.3 µM
same,IC50,EGFR,> 10.7 µM
Brc1cccc(Nc2ncnc(Nc3ccc4c(cnn4Cc4ccccc4)c3)n2)c1 [Compound 554],IC50,PDGFRB,7.41 to 9.53 µM
same,IC50,IGFR-1,> 9.53 µM
same,IC50,Itk,> 9.53 µM
same,IC50,AKT,7.41 to 9.53 µM
same,IC50,Kdr,0.847 to 5.08 µM
same,IC50,c-Met,5.08 to 7.41 µM
same,IC50,Zap-70,7.41 to 9.53 µM
same,IC50,Lck,5.08 to 7.41 µM
same,IC50,ErbB2,5.08 to 7.41 µM
same,IC50,EGFR,< 0.847 µM
COC(=O)Cc1cccc(Nc2ncnc(Nc3ccc(C)c(O)c3)n2)c1 [Compound 542],IC50,PDGFRB,1.09 to 6.57 µM
same,IC50,IGFR-1,1.09 to 6.57 µM
same,IC50,Itk,1.09 to 6.57 µM
same,IC50,AKT,> 12.3 µM
same,IC50,Kdr,< 1.09 µM
same,IC50,c-Met,9.58 to 12.3 µM
same,IC50,Zap-70,> 12.3 µM
same,IC50,Lck,1.09 to 6.57 µM
same,IC50,ErbB2,1.09 to 6.57 µM
same,IC50,EGFR,1.09 to 6.57 µM
COc1cc(Nc2ncnc(N[C@H]3CCCc4ccccc43)n2)cc(OC)c1OC [Compound 619],IC50,PDGFRB,> 11 µM
same,IC50,IGFR-1,> 11 µM
same,IC50,Itk,> 11 µM
same,IC50,AKT,8.59 to 11 µM
same,IC50,Kdr,5.89 to 8.59 µM
same,IC50,c-Met,> 11 µM
same,IC50,Zap-70,> 11 µM
same,IC50,Lck,5.89 to 8.59 µM
same,IC50,ErbB2,8.59 to 11 µM
same,IC50,EGFR,8.59 to 11 µM
NC(=O)Cc1cccc(Nc2ncnc(Nc3cc(-c4ccccc4)n[nH]3)n2)c1 [Compound 578],IC50,PDGFRB,1.04 to 6.21 µM
same,IC50,IGFR-1,< 1.04 µM
same,IC50,Itk,< 1.04 µM
same,IC50,AKT,> 11.6 µM
same,IC50,Kdr,< 1.04 µM
same,IC50,c-Met,< 1.04 µM
same,IC50,Zap-70,> 11.6 µM
same,IC50,Lck,< 1.04 µM
same,IC50,ErbB2,1.04 to 6.21 µM
same,IC50,EGFR,< 1.04 µM
CCN(c1ccccc1)c1ncnc(Nc2cc(OC)c(OC)c(OC)c2)n1 [Compound 536],IC50,PDGFRB,1.05 to 6.29 µM
same,IC50,IGFR-1,1.05 to 6.29 µM
same,IC50,Itk,> 11.8 µM
same,IC50,AKT,> 11.8 µM
same,IC50,Kdr,< 1.05 µM
same,IC50,c-Met,< 1.05 µM
same,IC50,Zap-70,> 11.8 µM
same,IC50,Lck,1.05 to 6.29 µM
same,IC50,ErbB2,1.05 to 6.29 µM
same,IC50,EGFR,< 1.05 µM
Nc1ncnc(Nc2ccc3c(cnn3Cc3ccccc3)c2)n1 [Compound 665],IC50,PDGFRB,> 14.2 µM
same,IC50,IGFR-1,> 14.2 µM
same,IC50,Itk,> 14.2 µM
same,IC50,AKT,> 14.2 µM
same,IC50,Kdr,> 14.2 µM
same,IC50,c-Met,> 14.2 µM
same,IC50,Zap-70,> 14.2 µM
same,IC50,Lck,> 14.2 µM
same,IC50,ErbB2,1.26 to 7.56 µM
same,IC50,EGFR,1.26 to 7.56 µM
COc1cc(Nc2ncnc(-n3c(NCc4nccs4)nc4ccccc43)n2)cc(OC)c1OC [Compound 549],IC50,PDGFRB,< 0.815 µM
same,IC50,IGFR-1,> 9.17 µM
same,IC50,Itk,> 9.17 µM
same,IC50,AKT,> 9.17 µM
same,IC50,Kdr,< 0.815 µM
same,IC50,c-Met,> 9.17 µM
same,IC50,Zap-70,> 9.17 µM
same,IC50,Lck,0.815 to 4.89 µM
same,IC50,ErbB2,0.815 to 4.89 µM
same,IC50,EGFR,4.89 to 7.13 µM
